Experimental data published in patent US20250215091A1, “Anti-GAL3 Antibodies and Compositions” (Les Laboratoires Servier, priority 2022, published 2025).

Assays:
[1] = test system: murine model of HOCI-induced fibrosis; assay: HOCI-induced murine fibrosis model: skin and lung collagen (Picrosirius red); type: in vivo, mice; conditions: first experiment; for lung collagen levels: day 42, FIG. 8A; for skin collagen levels: day 42, vs HOCI group, FIG. 8B
Method: (§1) In a first experiment, control mice (n=12) received a daily intradermal injection of 300 μL of sterile phosphate buffer saline (PBS) for 5 consecutive days per week, for a duration of 42 days. HOCI alone and HOCI with antibody (HOCI-antibody) treated mice (n=12 per group) received a daily intradermal injection of 300 μL of HOCI for 5 consecutive days per week, for a duration of 42 days. Antibody-treated mice also received a subcutaneous injection of 20 mg/kg antibody, starting at day minus one and every 5 days between day 5 and day 40. Each antibody was solubilized in sterile, endotoxin-free PBS before injection. In a second experiment, the same protocol was applied, except that duration of the study was 63 days and antibodies were given every 7 days starting at day minus 1 until day 62.
(§2) Mice that received daily injection of HOCI were also treated by intratracheal instillation of 0.5 mg/kg of TD139 compound (HOCI-TD139), a small molecule Gal3 inhibitor. In a first experiment, the administrations started from day 21 and the compound was given every 3 days until day 39. In a second experiment, the administrations started from day 20 and the compound was given every 3 days until day 62. TD139 was initially dissolved in 100% DMSO then diluted 50-fold in endotoxin-free PBS before administration.
At the day of study termination of the first experiment (day 42), skin and lung samples were taken, formalin-fixed and processed to individual paraffin wax blocks. Sections of skin and lung were cut from the blocks and, after rehydration, stained with Picrosirius Red coloration according to the manufacturer's protocol. Subsequently, each slide was examined and remotely analyzed employing the web-based Image J software

[2] = test system: murine model of bleomycin-induced fibrosis; assay: Bleomycin-induced murine lung fibrosis model: Modified Ashcroft fibrosis score; type: in vivo, mice; conditions: for attenuation of lung fibrosis (overall): day 21, FIG. 15
Method: (§3) Control bleomycin mice named ‘Bleo’ received an administration of 1.65 mg/kg bleomycin by the oropharyngeal route on Day 1. […] Antibody-treated mice also received an administration of 1.65 mg/kg bleomycin by the oropharyngeal route on Day 1 and a subcutaneous injection of 20 mg/kg antibody, starting on day minus one and on days 4, 8, 12, 16 and 20. Each antibody was solubilized in sterile, endotoxin-free PBS before injection. Mice that received bleomycin were also treated by oropharyngeal administration of 0.5 mg/kg of TD139 compound (Bleo-TD139), a small molecule Gal3 inhibitor, starting on day 12 and every 2 days until day 20. TD139 was initially dissolved in 100% DMSO.
Mice were submitted for terminal euthanasia on day 21. The lungs were collected for histopathological examination and gravity inflation-fixed with 10% neutral buffered formalin (NBF) before being immersion fixed in NBF.
Sections were taken and then placed on three slides as indicated by the code numbers on FIG. 14.
Three longitudinal sections parallel to and bisecting the main stem bronchus were trimmed from the left lung and right caudal lung lobes and mounted in cassettes 01 and 02, respectively. The right cranial, middle and accessory lung lobes were sectioned longitudinally and mounted in cassette 03. All sections were stained with picrosirius red and scored in a blinded manner by a certified veterinary pathologist using the Modified Ashcroft fibrosis score (0-8), where “0” corresponds to “normality (no fibrosis) and “8” corresponds to the highest possible fibrosis score, as described by Hübner et al. (2008) but based on assessment across the whole section of lung.

plasma Gal3 = assay: HOCI-induced murine fibrosis model: plasma Gal3 (ELISA); type: in vivo, mice; conditions: first experiment, day 42; FIG. 10
Method: as §1, §2
In the first experiment, the plasma levels of Gal3 were measured at day minus 1 (before antibody administration) and at termination day (day 42) using a mouse Galectin-3 DuoSet ELISA kit (R&D Systems, DY1197) according to the manufacturer's instructions. Plasma samples were diluted 1:200 in order to fit with the dynamic range of the assay.

[3] = test system: genes differentially regulated between HOCI group and control group in whole blood cells; assay: HOCI-induced murine fibrosis model: whole blood RNA sequencing; type: in vivo, mice; conditions: of 510 genes differentially regulated HOCI vs control; day 42, whole blood
Method: as §1, §2
In the first experiment, global gene expression was examined at day 42 in whole blood cells by RNA sequencing.
Whole blood was collected in RNA protect tubes (Qiagen) and were processed for RNA extraction using the RNeasy Protect Animal blood kit with the optional on-column DNAse I digestion. Total RNA samples were quantified on Nanodrop 2000 (ThermoFisher Scientific™) and analyzed on Bioanalyzer (Agilent) using RNA 6000 Nano chips to determine RNA quality (RIN). Total RNA matching the QC criteria were included in the study. Purified RNA samples were used as input for the TruSeq Strand-specific RNA-seq (poly A selection and globin depletion) according to manufacturer's protocol (Illumina). […]
Raw reads were processed using the in-house RNAExp Expression pipeline 2.1 and the quality was assessed using FastQC tools. Then, reads were trimmed for adaptors using Cutadapt and trimmed reads were aligned to mouse mm39 reference genome using the STAR aligner. Aligned data were evaluated for quality using Samtools and Picard tools. Then, aligned reads per gene were quantified using FeatureCount. […] Read count were normalized by the variance stabilizing transformation vst function from DESeq2 R package.
55,416 genes were detected in the data. […] Genes differentially expressed between groups were determined using a linear model (ImFit function from limma R package) on vst transformation gene expression dataset. […]

plasma IL-6 = assay: HOCI-induced murine fibrosis model: plasma IL-6 (MSD); type: in vivo, mice; conditions: first experiment, day 42; vs HOCI group; FIG. 9
Method: as §1, §2
(§4) In the first experiment, a mixed effect model with repeated measurements was performed on Control group, HOCI treated group, HOCI-antibody- and HOCI-TD139-treated groups. The impact of HOCI administration on plasma IL-6 and IL-5 levels was evaluated compared to the control group. The impact of antibody and TD139 treatments was compared to the HOCI group (FIG. 9). IL-6 and IL-5 were quantified by using the MSD technology from Mesoscale.

[4] = test system: murine model of bleomycin-induced fibrosis; assay: Bleomycin-induced murine lung fibrosis model: body weight and body weight metrics; type: in vivo, mice; conditions: for reduction of median Time to baseline (TTB): median TTB 20 days for untreated bleomycin group; for reduction of median Time to baseline (TTB) / reduction of median Time to weight growth (TWG): FIG. 13; for reduction of median Time to weight growth (TWG): median TWG 10 days for untreated bleomycin group
Method: as §3
Mice were weighed daily. Their growth curves are represented on FIG. 12. Control mice had normal growth with a mean percent increase of 6.4% of their initial body weight measured on day minus 1.
Body weight metrics were assessed by using two parameters called Time to weight growth (TWG) and Time to baseline (TTB), shown on FIG. 13. Time to weight growth corresponds to the point of inflection when mice show an ascending growth curve and start to regain weight within the course of the experiment. Time to baseline corresponds to the number of days required for mice to recover their initial body weight (day minus 1). The median TWG was 10 days for the untreated bleomycin group. […] TD139 compound had no efficacy on this parameter (p-value 0.53).

[5] = test system: murine model of HOCI-induced fibrosis; assay: HOCI-induced murine fibrosis model: skin thickness; type: in vivo, mice; conditions: first experiment, 42 days; antibody 20 mg/kg s.c.; TD139 0.5 mg/kg intratracheal; vs HOCI group; FIG. 7A
Method: as §1, §2
The evolution of skin thickness was monitored by using an external caliper, every seven days until sacrifice.

plasma IL-5 = assay: HOCI-induced murine fibrosis model: plasma IL-5 (MSD); type: in vivo, mice; conditions: first experiment, day 42; vs HOCI group; FIG. 9
Method: as §1, §2, §4

plasma TNF alpha = assay: Rat ARDS model (LPS challenge): plasma TNF alpha (MSD); type: in vivo; conditions: 4 h following LPS challenge; vs LPS group; FIG. 18
Method: (§5) Positive control rats received 3 doses of sterile phosphate buffer at day minus 11, minus 6 and minus 1 prior LPS challenge (0.25 mg/kg by subcutaneous route at day 1). Negative control rats received one oral dose of Dexamethasone at 10 mg/kg (dissolved in 0.5% carboxymethyl cellulose in deionized water) 2 hours prior LPS challenge (0.25 mg/kg by subcutaneous route at day 1). LPS (lipopolysaccharide) causes an acute inflammatory response, whereas dexamethasone has anti-inflammatory effects thus being the reference treatment in this model.
(§6) Antibody-treated rats received 3 doses of antibodies (14 mg/kg) at day minus 11, minus 6 and minus 1 prior to LPS challenge (0.25 mg/kg by subcutaneous route at day 1). Each antibody was solubilized in sterile PBS before injection.
(§7) Control rats of the experiment received 3 doses of sterile phosphate buffer at day minus 11, minus 6 and minus 1 without LPS challenge at day 1.
For all rats, plasma sampling was performed 4 h following LPS challenge.
The impact of anti-Gal3 antibody treatment in LPS challenged rats were evaluated on plasma cytokine levels, namely TNF alpha and KC-GRO cytokines, and compared to the positive control group (LPS challenge with PBS treatment) (respectively FIG. 18A and FIG. 18B). TNF alpha and KC-GRO were quantified by using the MSD technology from Mesoscale.

rat model of ARDS [6] = assay: Rat ARDS model (LPS challenge): total BALF protein (BCA assay); type: in vivo; conditions: antibodies 14 mg/kg x3 prior to LPS; dexamethasone 10 mg/kg oral; vs LPS group; FIG. 17
Method: as §5, §6, §7
The impact of anti-Gal3 antibody treatment in LPS challenged rats were evaluated by quantification of proteins (by BCA assay) in BALF and compared to the positive control group (LPS challenge with PBS treatment) (FIG. 17). The presence of protein in BALF reflects the damage to the air-blood barrier. […] Total BALF protein numeration levels were decreased after treatment with anti-inflammatory dexamethasone.

rat model of ARDS [7] = assay: Rat ARDS model (LPS challenge): neutrophils counts in BALF; type: in vivo; conditions: antibodies 14 mg/kg x3 prior to LPS; dexamethasone 10 mg/kg oral; vs LPS group; FIG. 16
Method: as §5, §6, §7
The impact of anti-Gal3 antibody treatment in LPS challenged rats were evaluated by quantification of neutrophils in Bronchoalveolar Lavage Fluid and compared to the positive control group (LPS challenge with PBS treatment) (FIG. 16). […] Neutrophils numeration levels were decreased after treatment with anti-inflammatory dexamethasone.

OC[C@H]1O[C@@H](S[C@@H]2O[C@H](CO)[C@H](O)[C@H](n3cc(-c4cccc(F)c4)nn3)[C@H]2O)[C@H](O)[C@@H](n2cc(-c3cccc(F)c3)nn2)[C@H]1O [TD139, reference compound]
lung collagen levels [1]: restored lung collagen levels to those of control mice | skin collagen levels [1]: significantly reduced | mice having a lung fibrosis score of 2 and 3 ([2]; day 21): 50.6% | mice having a lung fibrosis score of 4 and 5 ([2]; day 21, 49.3% for untreated bleomycin group): 49.4% | attenuation of lung fibrosis (overall) [2]: did not show any sign of anti-fibrotic efficacy | plasma Gal3 levels (plasma Gal3): restored the plasma Gal3 levels to values similar to those of the control group | number of HOCI-dysregulated genes counteracted by treatment [3]: 7 genes | percentage of HOCI-dysregulated genes counteracted by treatment [3]: 1.37% | plasma IL-6 levels (plasma IL-6): no activity | reduction of median Time to baseline (TTB) [4]: no efficacy | reduction of median Time to weight growth (TWG) [4]: no efficacy | mean percent weight increase on day 21 compared to day minus 1 ([4]; untreated bleomycin group +1.9%, control mice 6.4%): 2.9% | HOCI-induced increase in skin thickness [5]: lower decrease in skin thickness than with either antibody, reaching statistical significance only at days 28 and 42 | plasma IL-5 levels (plasma IL-5): decreased significantly

B1: D06: anti-Gal3 monoclonal antibody, IgG1 format; VH SEQ ID NO 38, VL SEQ ID NO 39 (antibody, V domains shown)
VH: EVQLVESGGSLVKPGGSLRLSCAASGFTFSNYNMNWVRQAPGKGLEWISSIYGSSRYIYYADFVKGRFTISRDNAKNSLYLQMNSLRAEDTAVYYCVRSGYGGMDVWGRGTLVTVSS
VL: QSVLTQPASVSGSPGQSITISCAGTSSDVGGYNGVSWYQQHPGKAPKLMIYYDSYRPSGVSNRFSGSKSGNTASLTISGLQAEDEADYYCSSGTDYSTRVFGGGTKLEIK
modifications: IgG1 constant region
lung collagen levels [1]: restored lung collagen levels to those of control mice | skin collagen levels [1]: non significant downward trend | frequency of animals with fibrosis score of 2 ([2]; day 21, 7.4% in untreated bleomycin group): 30% | frequency of animals with median fibrosis scores of 3 or 4 ([2]; day 21, 87.6% in untreated bleomycin group): 64.5% | attenuation of lung fibrosis (overall) [2]: clear evidence for attenuation of lung fibrosis | TNF alpha plasma levels (plasma TNF alpha): also decreased, displaying an intermediary profile | total BALF protein (rat model of ARDS [6]): also decreased | neutrophils counts in BALF (rat model of ARDS [7]): also decreased | body weight status on day 21 ([4]; bleomycin 1.65 mg/kg, antibody 20 mg/kg s.c.): full weight recovery | recovery of body weight ([4]; bleomycin 1.65 mg/kg, antibody 20 mg/kg s.c., FIG. 12): more rapid recovery of body weight | reduction of median Time to baseline (TTB) [4]: 5.5 days | reduction of median Time to weight growth (TWG) [4]: 2.8 days
